Toxic doses and inconclusive results are not listed. Rule as the data show it: active = T/C of 150% or more; inactive = T/C below 125%.
Tested on: L1210 leukemia ip in BDF1 mice, survival T/C
Experiment: NCI In Vivo Anticancer Drug Screen. Data for tumor model L1210 Leukemia (intraperitoneal) in B6D2F1 (BDF1) mice
Conditions: endpoint: mean survival time, higher = longer survival
Summary of the method: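 Tumor cells were implanted, animals were treated, and survival was followed. The result divides the treated measurement by the vehicle-control measurement.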

[1] = dose: 100.0 mg/kg/injection, schedule: Q01DX009 (ip), vehicle: Klucel (hydroxypropylcellulose) (HPC)
[2] = dose: 200.0 mg/kg/injection, schedule: Q01DX009 (ip), vehicle: Klucel (hydroxypropylcellulose) (HPC)
[3] = dose: 400.0 mg/kg/injection, schedule: Q01DX009 (ip), vehicle: Klucel (hydroxypropylcellulose) (HPC)
[4] = dose: 100.0 mg/kg/injection, schedule: Q01DX009 (ip), vehicle: saline
[5] = dose: 100.0 mg/kg/injection, schedule: Q04DX003 (ip), vehicle: saline
[6] = dose: 200.0 mg/kg/injection, schedule: Q01DX009 (ip), vehicle: saline
[7] = dose: 200.0 mg/kg/injection, schedule: Q04DX003 (ip), vehicle: saline
[8] = dose: 400.0 mg/kg/injection, schedule: Q04DX003 (ip), vehicle: saline
[9] = dose: 100.0 mg/kg/injection, schedule: Q04DX003 (ip), vehicle: Klucel (hydroxypropylcellulose) (HPC)
[10] = dose: 400.0 mg/kg/injection, schedule: Q04DX003 (ip), vehicle: Klucel (hydroxypropylcellulose) (HPC)
[11] = dose: 200.0 mg/kg/injection, schedule: Q04DX003 (ip), vehicle: saline with Tween-80
[12] = dose: 400.0 mg/kg/injection, schedule: Q04DX002 (ip), vehicle: saline with Tween-80
[13] = dose: 100.0 mg/kg/injection, schedule: Q04DX003 (ip), vehicle: saline with Tween-80
[14] = dose: 100.0 mg/kg/injection, schedule: Q01DX009 (ip), vehicle: saline with Tween-80
[15] = dose: 200.0 mg/kg/injection, schedule: Q01DX009 (ip), vehicle: saline with Tween-80
[16] = dose: 400.0 mg/kg/injection, schedule: Q01DX009 (ip), vehicle: saline with Tween-80
[17] = dose: 200.0 mg/kg/injection, schedule: Q04DX003 (ip), vehicle: Klucel (hydroxypropylcellulose) (HPC)

Measured: T/C

O=C(O)CC1CCCCC1NC(=O)c1ccccc1 (stereo unspecified)
inactive: dose: 100.0 mg/kg/injection, schedule: Q01DX001 (ip), vehicle: saline with Tween-80 100 % of control | dose: 200.0 mg/kg/injection, schedule: Q01DX001 (ip), vehicle: saline with Tween-80 94 % of control | dose: 400.0 mg/kg/injection, schedule: Q01DX001 (ip), vehicle: saline with Tween-80 95 % of control

CCOC(=O)c1c(C)c2c(n1C)CCCC2O (stereo unspecified)
inactive: dose: 100.0 mg/kg/injection, schedule: Q04DX003 (ip), vehicle: carboxymethylcellulose (CMC) 101 % of control | dose: 200.0 mg/kg/injection, schedule: Q04DX003 (ip), vehicle: carboxymethylcellulose (CMC) 98 % of control | dose: 400.0 mg/kg/injection, schedule: Q04DX003 (ip), vehicle: carboxymethylcellulose (CMC) 95 % of control

O=C1COc2ccc(Cl)cc2N1
inactive: [1] 100 % of control | [2] 97 % of control | [3] 119 % of control

CCCCCCCCNP(=S)(NCCCCCCCC)NCCCCCCCC
inactive: dose: 50.0 mg/kg/injection, schedule: Q01DX001 (ip), vehicle: other 105 % of control | dose: 100.0 mg/kg/injection, schedule: Q01DX001 (ip), vehicle: other 96 % of control | dose: 200.0 mg/kg/injection, schedule: Q01DX001 (ip), vehicle: other 96 % of control | dose: 400.0 mg/kg/injection, schedule: Q01DX001 (ip), vehicle: other 94 % of control

C[N+](C)(C)CCN=C(N)N[N+](=O)[O-]
inactive: [4] 97 % of control | [5] 97 % of control | [6] 99 % of control | [7] 98 % of control | [8] 98 % of control

COc1cccc(C(=O)O)c1OS(=O)(=O)c1ccccc1
inactive: [1] 98 % of control | [9] 91 % of control | [2] 95 % of control | [3] 93 % of control | [10] 94 % of control

O=[N+]([O-])c1cc(Br)c(Br)cc1N1CCCC1
inactive: [5] 98 % of control | [7] 88 % of control | [8] 86 % of control

COc1ccc(C2CC(=O)OC(=O)C2)cc1
inactive: dose: 25.6 mg/kg/injection, schedule: Q04DX002 (ip), vehicle: saline with Tween-80 101 % of control | dose: 64.0 mg/kg/injection, schedule: Q04DX002 (ip), vehicle: saline with Tween-80 101 % of control | dose: 160.0 mg/kg/injection, schedule: Q04DX002 (ip), vehicle: saline with Tween-80 101 % of control | [11] 97 % of control | [12] 95 % of control | dose: 400.0 mg/kg/injection, schedule: Q04DX003 (ip), vehicle: saline with Tween-80 92 % of control

COc1ccc(C(C(C(C)=O)C(C)=O)C(C(C)=O)C(C)=O)cc1
inactive: [13] 100 % of control | [11] 93 % of control

CN(C)N=Nc1ccc([N+](=O)[O-])cc1C(=O)O
inactive: dose: 25.0 mg/kg/injection, schedule: Q04DX003 (ip), vehicle: other 93 % of control | dose: 50.0 mg/kg/injection, schedule: Q04DX003 (ip), vehicle: other 98 % of control | [1] 100 % of control | dose: 100.0 mg/kg/injection, schedule: Q04DX003 (ip), vehicle: other 98 % of control | [2] 103 % of control | dose: 200.0 mg/kg/injection, schedule: Q04DX003 (ip), vehicle: other 101 % of control | [3] 110 % of control | dose: 400.0 mg/kg/injection, schedule: Q04DX003 (ip), vehicle: other 98 % of control

COC(=O)CCN(c1ccccc1)c1ccc(C)cc1
inactive: [14] 91 % of control | [15] 92 % of control | [16] 92 % of control

O=c1[nH]cnc2nc(-c3ccc(Cl)cc3)c(-c3ccc(Cl)cc3)nc12
inactive: dose: 50.0 mg/kg/injection, schedule: Q01DX009 (ip), vehicle: Klucel (hydroxypropylcellulose) (HPC) 92 % of control | [1] 103 % of control | [2] 92 % of control

O=C1CCCNc2ccccc21
inactive: [14] 98 % of control | [9] 93 % of control | [15] 110 % of control | [17] 106 % of control | [16] 93 % of control | [10] 98 % of control

CC(C)CCCC(=O)CCCCCCC(=O)CCN(O)C(=O)C(N)CO (stereo unspecified)
inactive: dose: 12.5 mg/kg/injection, schedule: Q01DX009 (ip), vehicle: acetone 93 % of control | dose: 25.0 mg/kg/injection, schedule: Q01DX009 (ip), vehicle: acetone 102 % of control | dose: 25.0 mg/kg/injection, schedule: Q04DX003 (ip), vehicle: acetone 95 % of control | dose: 50.0 mg/kg/injection, schedule: Q04DX003 (ip), vehicle: acetone 103 % of control | dose: 100.0 mg/kg/injection, schedule: Q01DX001 (ip), vehicle: acetone 97 % of control

COC1(OC)C2(Cl)C(Cl)=C(Cl)C1(Cl)C1C(=O)C=CC(=O)C12 (stereo unspecified)
inactive: [1] 104 % of control | [9] 100 % of control | [5] 98 % of control | [2] 96 % of control | [17] 98 % of control | [7] 93 % of control | [3] 98 % of control | [10] 96 % of control | [8] 101 % of control

Nc1ccc(C(=O)Oc2ccccc2)c(O)c1
inactive: [9] 95 % of control | [17] 93 % of control | [10] 95 % of control

c1ccc(CNc2ncnc3c2ncn3Cc2ccccc2)cc1
inactive: dose: 100.0 mg/kg/injection, schedule: Q01DX001 (ip), vehicle: Klucel (hydroxypropylcellulose) (HPC) 94 % of control | dose: 200.0 mg/kg/injection, schedule: Q01DX001 (ip), vehicle: Klucel (hydroxypropylcellulose) (HPC) 104 % of control | dose: 400.0 mg/kg/injection, schedule: Q01DX001 (ip), vehicle: Klucel (hydroxypropylcellulose) (HPC) 98 % of control

CCCCCCCC/C=C\CCCCCCCCSC#N
inactive: dose: 25.0 mg/kg/injection, schedule: Q04DX002 (ip), vehicle: saline with Tween-80 97 % of control | dose: 50.0 mg/kg/injection, schedule: Q04DX002 (ip), vehicle: saline with Tween-80 106 % of control | [14] 97 % of control | dose: 100.0 mg/kg/injection, schedule: Q04DX002 (ip), vehicle: saline with Tween-80 100 % of control | [15] 97 % of control | dose: 200.0 mg/kg/injection, schedule: Q04DX002 (ip), vehicle: saline with Tween-80 103 % of control | [12] 87 % of control

O=C1c2c(O)cccc2C(C2OC(CO)C(O)C(O)C2O)c2cc(CO)cc(O)c21 (stereo unspecified)
inactive: dose: 100.0 mg/kg/injection, schedule: Q01DX001 (ip), vehicle: saline 98 % of control | dose: 200.0 mg/kg/injection, schedule: Q01DX001 (ip), vehicle: saline 98 % of control | dose: 400.0 mg/kg/injection, schedule: Q01DX001 (ip), vehicle: saline 104 % of control

CCOC(=O)COc1cc(Cl)c(S(=O)(=O)F)cc1Cl
inactive: [9] 96 % of control | [17] 104 % of control | [10] 91 % of control

O=C(Nc1cccc([N+](=O)[O-])c1)Nc1cccc(C(F)(F)F)c1
inactive: dose: 100.0 mg/kg/injection, schedule: Q04DX002 (ip), vehicle: Klucel (hydroxypropylcellulose) (HPC) 101 % of control | dose: 200.0 mg/kg/injection, schedule: Q04DX002 (ip), vehicle: Klucel (hydroxypropylcellulose) (HPC) 99 % of control | dose: 400.0 mg/kg/injection, schedule: Q04DX002 (ip), vehicle: Klucel (hydroxypropylcellulose) (HPC) 96 % of control

O=C(OCC1CCCO1)c1ccccc1O (stereo unspecified)
inactive: [9] 100 % of control | [17] 100 % of control | [10] 95 % of control

c1ccc(CCCCc2ccccn2)cc1
inactive: [1] 105 % of control | [9] 101 % of control | [2] 105 % of control | [17] 105 % of control | [3] 97 % of control | [10] 94 % of control

COc1cc(NS(C)(=O)=O)ccc1N
inactive: [4] 103 % of control | [5] 107 % of control | [6] 98 % of control | [7] 103 % of control | [8] 102 % of control

Cc1ccc2c(c1)CCCN2C=O
inactive: dose: 50.0 mg/kg/injection, schedule: Q01DX009 (ip), vehicle: saline with Tween-80 95 % of control | [14] 93 % of control | [13] 102 % of control | [15] 102 % of control | [11] 94 % of control

C=C(C)C1CNC(C(=O)O)C1CC(=O)O (stereo unspecified)
inactive: dose: 6.25 mg/kg/injection, schedule: Q01DX009 (ip), vehicle: saline sonified 102 % of control | dose: 12.5 mg/kg/injection, schedule: Q01DX009 (ip), vehicle: saline sonified 86 % of control

O=C1OCC/C1=C/CCCC/C=C1\CCOC1=O
inactive: [1] 93 % of control | [9] 94 % of control | [2] 98 % of control | dose: 266.0 mg/kg/injection, schedule: Q04DX003 (ip), vehicle: Klucel (hydroxypropylcellulose) (HPC) 93 % of control | [10] 94 % of control
